The source of these data is patent publication US9643974B2, “Amino-substituted imidazopyridazines” (Bayer Intellectual Property GmbH, priority 2011, dated 2017).

Where a name gives a salt, the structure may show the parent alone.

One experiment concerns the target T1, human full-lengt MKNK1 (Homo sapiens, UniProt Q9BUB5, T385D).
T1 construct: purchased Carna Biosciences 02-145; host or cells: insect cells (baculovirus expression system)
Briefly: MKNK1 kinase assay (MKNK1 TR-FRET assay). The experiment is classed as biochemical. The conditions noted are these: ATP final conc. 10 μM, 15 min preincubation, 45 min reaction at 22° C. The source says:
MKNK1-inhibitory activity of compounds of the present invention was quantified employing the MKNK1 TR-FRET assay as described in the following paragraphs.
A recombinant fusion protein of Glutathione-S-Transferase (GST, N-terminally) and human full-lengt MKNK1 (amino acids 1-424 and T344D of accession number BAA 19885.1), expressed in insect cells using baculovirus expression system and purified via glutathione sepharose affinity chromatography, was purchased from Carna Biosciences (product no 02-145) and used as enzyme. As substrate for the kinase reaction the biotinylated peptide biotin-Ahx-IKKRKLTRRKSLKG (C-terminus in amide form) was used which can be purchased e.g. form the company Biosyntan (Berlin-Buch, Germany).
(§1) For the assay 50 nL of a 100 fold concentrated solution of the test compound in DMSO was pipetted into a black low volume 384 well microtiter plate (Greiner Bio-One, Frickenhausen, Germany), 2 μL of a solution of MKNK1 in aqueous assay buffer [50 mM HEPES pH 7.5, 5 mM magnesium chloride, 1.0 mM dithiothreitol, 0.005% (v/v) Nonidet-P40 (Sigma)] was added and the mixture was incubated for 15 min at 22° C. to allow pre-binding of the test compounds to the enzyme before the start of the kinase reaction. Then the kinase reaction was started by the addition of 3 μL of a solution of adenosine-tri-phosphate (ATP, 16.7 μM=>final conc. in the 5 μL assay volume is 10 μM) and substrate (0.1 μM=>final conc. in the 5 μL assay volume is 0.06 μM) in assay buffer and the resulting mixture was incubated for a reaction time of 45 min at 22° C. The concentration of MKNK1 was adjusted depending of the activity of the enzyme lot and was chosen appropriate to have the assay in the linear range, typical concentrations were in the range of 0.05 μg/ml. The reaction was stopped by the addition of 5 μL of a solution of TR-FRET detection reagents (5 nM streptavidine-XL665 [Cisbio Bioassays, Codolet, France] and 1 nM anti-ribosomal protein S6 (pSer236)-antibody from Invitrogen [#44921G] and 1 nM LANCE EU-W1024 labeled ProteinG [Perkin-Elmer, product no. AD0071]) in an aqueous EDTA-solution (100 mM EDTA, 0.1% (w/v) bovine serum albumin in 50 mM HEPES pH 7.5).
The resulting mixture was incubated for 1 h at 22° C. to allow the formation of complex between the phosphorylated biotinylated peptide and the detection reagents. Subsequently the amount of phosphorylated substrate was evaluated by measurement of the resonance energy transfer from the Eu-chelate to the streptavidine-XL. Therefore, the fluorescence emissions at 620 nm and 665 nm after excitation at 350 nm were measured in a TR-FRET reader, e.g. a Rubystar (BMG Labtechnologies, Offenburg, Germany) or a Viewlux (Perkin-Elmer). The ratio of the emissions at 665 nm and at […] was taken as the measure for the amount of phosphorylated substrate. The data were normalised (enzyme reaction without inhibitor=0% inhibition, all other assay components but no enzyme=100% inhibition). Usually the test compounds were tested on the same microtiterplate in 11 different concentrations in the range of 20 μM to 0.1 nM (20 μM, 5.9 μM, 1.7 μM, 0.51 μM, 0.15 μM, 44 nM, 13 nM, 3.8 nM, 1.1 nM, 0.33 nM and 0.1 nM, the dilution series prepared separately before the assay on the level of the 100 fold concentrated solutions in DMSO by serial 1:3.4 dilutions) in duplicate values for each concentration and […] were calculated by a 4 parameter fit.
A general note: Time-resolved FRET reads energy transfer from a long-lived donor to a nearby acceptor.

The target of a further experiment is T2, human full-length MKNK1 (Homo sapiens, UniProt Q9BUB5, T385D).
T2 construct: purchased Carna Biosciences 02-145; host or cells: insect cells (baculovirus expression system)
T2 sequence (Q9BUB5 1-424 isoform Q9BUB5-2 T344D): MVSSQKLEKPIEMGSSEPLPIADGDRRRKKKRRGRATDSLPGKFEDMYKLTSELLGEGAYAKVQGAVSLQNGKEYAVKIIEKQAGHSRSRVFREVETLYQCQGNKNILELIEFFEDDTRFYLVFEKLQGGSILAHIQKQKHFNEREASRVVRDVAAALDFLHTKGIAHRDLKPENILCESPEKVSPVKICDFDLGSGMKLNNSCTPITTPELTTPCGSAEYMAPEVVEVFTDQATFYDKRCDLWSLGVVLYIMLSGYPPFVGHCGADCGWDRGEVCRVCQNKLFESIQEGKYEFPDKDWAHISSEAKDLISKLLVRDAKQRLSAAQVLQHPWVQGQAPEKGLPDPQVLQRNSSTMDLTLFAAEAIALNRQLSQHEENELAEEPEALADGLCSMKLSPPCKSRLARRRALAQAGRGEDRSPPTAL
Briefly: MKNK1 kinase high ATP assay (TR-FRET-based). Type of experiment: biochemical. The conditions noted are these: ATP final conc. 2 mM, 15 min preincubation, 30 min reaction at 22° C. The procedure:
MKNK1 Kinase High ATP Assay
MKNK1-inhibitory activity at high ATP of compounds of the present invention after their preincubation with MKNK1 was quantified employing the TR-FRET-based MKNK1 high ATP assay as described in the following paragraphs.
A recombinant fusion protein of Glutathione-S-Transferase (GST, N-terminally) and human full-length MKNK1 (amino acids 1-424 and T344D of accession number BAA 19885.1), expressed in insect cells using baculovirus expression system and purified via glutathione sepharose affinity chromatography, was purchased from Carna Biosciences (product no 02-145) and used as enzyme. As substrate for the kinase reaction the biotinylated peptide biotin-Ahx-IKKRKLTRRKSLKG (C-terminus in amide form) was used, which can be purchased e.g. from the company Biosyntan (Berlin-Buch, Germany).
as §1, with “3.3 mM=>final” for “16.7 μM=>final”, “2 mM)” for “10 μM)”, “30” for “45”, “0.003 μg/mL.” for “0.05 μg/ml.”
The resulting mixture was incubated for 1 h at 22° C. to allow the formation of complex between the phosphorylated biotinylated peptide and the detection reagents. Subsequently the amount of phosphorylated substrate was evaluated by measurement of the resonance energy transfer from the Eu-chelate to the streptavidine-XL. Therefore, the fluorescence emissions at 620 nm and 665 nm after excitation at 350 nm were measured in a TR-FRET reader, e.g. a Rubystar (BMG Labtechnologies, Offenburg, Germany) or a Viewlux (Perkin-Elmer). The ratio of the emissions at 665 nm and at […] was taken as the measure for the amount of phosphorylated substrate. The data were normalised (enzyme reaction without inhibitor=0% inhibition, all other assay components but no enzyme=100% inhibition).

A word on the IC50: it is the concentration needed to halve the response being measured. High values mean lower potency, low ones higher potency.

T1 sequence (Q9BUB5 1-424 isoform Q9BUB5-2 T344D): as above

For `COc1nccc2oc(-c3cnc4ccc(OCC(C)CN)nn34)cc12` (stereo not shown) [Example 16, 3-{[3-(4-Methoxyfuro[3,2-c]pyridin-2-yl)imidazo[1,2-b]pyridazin-6-yl]oxy}-2-methylpropan-1-amine], the IC50 is 0.008 µM against human full-lengt MKNK1 and 0.019 µM against human full-length MKNK1.
Taken in the same sequence, the figures for `C[C@@H](N)COc1ccc2ncc(-c3cc4ncccc4o3)n2n1` [Example 17, (2R)-{[3-(Furo[3,2-b]pyridin-2-yl)imidazo[1,2-b]pyridazin-6-yl]oxy}propan-2-amine] were 0.067 µM and 0.127 µM.
With `COc1nccc2oc(-c3cnc4ccc(O[C@@H]5CC[C@H](N)C5)nn34)cc12` [Example 18, (1S,3R)-3-{[3-(4-Methoxyfuro[3,2-c]pyridin-2-yl)imidazo[1,2-b]pyridazin-6-yl]-oxy}cyclopentanamine], the IC50 at human full-lengt MKNK1 was found to be 0.017 µM; on human full-length MKNK1 it was 0.043 µM.
Taken in the same sequence, the figures for `CC(C)Oc1nccc2oc(-c3cnc4ccc(OC[C@H](C)N)nn34)cc12` [Example 19, (2S)-1-({3-[4-(Propan-2-yloxy)furo[3,2-c]pyridin-2-yl]imidazo[1,2-b]pyridazin-6-yl}oxy)propan-2-amine] were 0.017 µM and 0.034 µM.
In the case of `C[C@H](N)COc1ccc2ncc(-c3cc4cnccc4o3)n2n1` [Example 20, (2S)-1-{[3-(Furo[3,2-c]pyridin-2-yl)imidazo[1,2-b]pyridazin-6-yl]oxy}propan-2-amine], the IC50 on human full-lengt MKNK1 was determined as 0.064 µM; on human full-length MKNK1, 0.132 µM.
Taken in the same sequence, the figures for `COc1nccc2oc(-c3cnc4ccc(O[C@H]5CC[C@H](N)CC5)nn34)cc12` [Example 21, trans-4-{[3-(4-Methoxyfuro[3,2-c]pyridin-2-yl)imidazo[1,2-b]pyridazin-6-yl]-oxy}cyclohexanamine salt with formic acid] were 0.01 µM and 0.031 µM.
Taken in the same sequence, the figures for `COc1nccc2oc(-c3cnc4ccc(OCC(C)(C)N)nn34)cc12` [Example 22, 1-{[3-(4-Methoxyfuro[3,2-c]pyridin-2-yl)imidazo[1,2-b]pyridazin-6-yl]oxy}-2-methylpropan-2-amine] were 0.014 µM and 0.079 µM.
Taken in the same sequence, the figures for `COc1nccc2oc(-c3cnc4ccc(OCC(CN)c5ccccc5)nn34)cc12` (stereo not shown) [Example 23, 3-{[3-(4-Methoxyfuro[3,2-c]pyridin-2-yl)imidazo[1,2-b]pyridazin-6-yl]oxy}-2-phenylpropan-1-amine] were 0.032 µM and 0.057 µM.
Take `CC(C)(C)COc1nccc2oc(-c3cnc4ccc(O[C@H]5C[C@H](N)C5)nn34)cc12` [Example 24, trans-3-({3-[4-(2,2-Dimethylpropoxy)furo[3,2-c]pyridin-2-yl]imidazo[1,2-b]-pyridazin-6-yl}oxy)cyclobutanamine]: the IC50 at human full-lengt MKNK1 was determined as 0.003 µM; on human full-length MKNK1, 0.004 µM.
For `C[C@H](N)COc1ccc2ncc(-c3cc4c(OCC5CC5)nccc4o3)n2n1` [Example 25, (2S)-1-({3-[4-(Cyclopropylmethoxy)furo[3,2-c]pyridin-2-yl]imidazo[1,2-b]-pyridazin-6-yl}oxy)propan-2-amine], the IC50 against human full-lengt MKNK1 was found to be 0.016 µM; against human full-length MKNK1, 0.028 µM.
Taken in the same sequence, the figures for `C[C@@H](N)COc1ccc2ncc(-c3cc4cnccc4o3)n2n1` [Example 26, (2R)-1-{[3-(Furo[3,2-c]pyridin-2-yl)imidazo[1,2-b]pyridazin-6-yl]oxy}propan-2-amine] were 0.1 µM and 0.216 µM.
`COc1nccc2oc(-c3cnc4ccc(OCC5(CN)COC5)nn34)cc12` [Example 27, 1-[3-({[3-(4-Methoxyfuro[3,2-c]pyridin-2-yl)imidazo[1,2-b]pyridazin-6-yl]-oxy}methyl)oxetan-3-yl]methanamine]: the half-maximal inhibitory concentration (IC50) came out at 0.153 µM on human full-lengt MKNK1 and 0.259 µM on human full-length MKNK1.
For `N[C@H]1C[C@H](Oc2ccc3ncc(-c4cc5ncccc5o4)n3n2)C1` [Example 28, trans-3-{[3-(Furo[3,2-b]pyridin-2-yl)imidazo[1,2-b]pyridazin-6-yl]oxy}cyclobutanamine] the same measures were 0.007 µM and 0.013 µM.
For `N[C@H]1C[C@H](Oc2ccc3ncc(-c4cc5cnccc5o4)n3n2)C1` [Example 29, trans-3-{[3-(Furo[3,2-c]pyridin-2-yl)imidazo[1,2-b]pyridazin-6-yl]oxy}cyclobutanamine] the same measures were 0.008 µM and 0.016 µM.
In the case of `CC(C)[C@H](N)COc1ccc2ncc(-c3cc4cnccc4o3)n2n1` [Example 30, (2S)-1-{[3-(Furo[3,2-c]pyridin-2-yl)imidazo[1,2-b]pyridazin-6-yl]oxy}-3-methylbutan-2-amine], the IC50 against human full-lengt MKNK1 came out at 0.137 µM; at human full-length MKNK1, 0.309 µM.
Taken in the same sequence, the figures for `COc1nccc2oc(-c3cnc4ccc(O[C@H]5CCC[C@@H]5N)nn34)cc12` [Example 31, (1S,2S)-2-{[3-(4-Methoxyfuro[3,2-c]pyridin-2-yl)imidazo[1,2-b]pyridazin-6-yl]-oxy}cyclopentanamine] were 0.013 µM and 0.028 µM.
On to `CCOc1nccc2oc(-c3cnc4ccc(OC[C@H](C)N)nn34)cc12` [Example 32, (2S)-1-{[3-(4-Ethoxyfuro[3,2-c]pyridin-2-yl)imidazo[1,2-b]pyridazin-6-yl]oxy}-propan-2-amine], for which the half-inhibitory concentration (IC50) at human full-lengt MKNK1 is 0.014 µM; against human full-length MKNK1 it was 0.037 µM.
